# Results published in patent US20190135747A1, “INDOLE AND INDAZOLE CYANOCINNAMATE COMPOUNDS AND THERAPEUTIC USES THEREOF” (Regents of the University of Minnesota, priority 2016, published 2019).
# Assays:
# Assay type in all cases: cell-based
# [1] = system: 4T1 (MCT1 expressing metastatic murine breast cancer cell line); test: MTT in vitro cytotoxicity assay, 4T1; settings: Mus musculus, 4T1 cells
# Experimental: (§1) Cell line MDA-MB-231 (MCT4 expressing human triple negative breast cancer cell line), cell line MCF-7 (MCT1 expressing estrogen receptor positive human breast cancer cell line), and cell line 4T1 (MCT1 expressing metastatic murine breast cancer cell line) were used for testing the in vitro cytotoxicity of compounds 1-d, 2, and 3 using the MTT assay available from ThermoFisher Scientific. In addition, Compounds 1-d, 2, and 3 were also evaluated for MCT1 inhibition activity in RBE4 (MCT1 expressing rat brain endothelial 4 cell line) and MCT4 inhibition activity in MDA-MB-231 cell lines by measuring the IC50 values using the MCT lactate inhibition assays (Gurrapu S, Jonnalagadda S K, Alam M A, Nelson G L, Sneve M G, Drewes L R, Venkatram R. Mereddy. Monocarboxylate transporter 1 inhibitors as potential anti-cancer agents. ACS. Med. Chem. Lett., 2015, 6, 558-561.).
# MCT1 = target: T1, MCT1 (Rattus norvegicus, UniProt P53987); test: MCT lactate inhibition assay, MCT1 in RBE4; settings: RBE4 rat brain endothelial cells
# T1 construct: endogenous in cells; host or cells: RBE4 rat brain endothelial cells
# T1 sequence (P53987 1-494): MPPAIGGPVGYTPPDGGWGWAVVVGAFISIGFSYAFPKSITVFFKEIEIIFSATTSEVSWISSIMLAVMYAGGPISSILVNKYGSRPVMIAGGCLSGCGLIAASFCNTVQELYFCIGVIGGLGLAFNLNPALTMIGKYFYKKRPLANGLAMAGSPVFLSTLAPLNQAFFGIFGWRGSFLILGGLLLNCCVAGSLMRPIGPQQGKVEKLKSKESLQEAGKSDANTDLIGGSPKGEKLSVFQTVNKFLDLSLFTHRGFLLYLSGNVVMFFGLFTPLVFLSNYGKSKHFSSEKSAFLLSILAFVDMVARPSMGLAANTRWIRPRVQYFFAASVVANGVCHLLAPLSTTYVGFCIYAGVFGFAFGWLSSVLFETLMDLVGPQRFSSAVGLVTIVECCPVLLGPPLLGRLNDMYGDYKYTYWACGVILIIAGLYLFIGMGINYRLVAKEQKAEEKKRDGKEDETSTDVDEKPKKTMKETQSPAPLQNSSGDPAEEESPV
# T1 sequence (P26453 140-388 partner limits assumed): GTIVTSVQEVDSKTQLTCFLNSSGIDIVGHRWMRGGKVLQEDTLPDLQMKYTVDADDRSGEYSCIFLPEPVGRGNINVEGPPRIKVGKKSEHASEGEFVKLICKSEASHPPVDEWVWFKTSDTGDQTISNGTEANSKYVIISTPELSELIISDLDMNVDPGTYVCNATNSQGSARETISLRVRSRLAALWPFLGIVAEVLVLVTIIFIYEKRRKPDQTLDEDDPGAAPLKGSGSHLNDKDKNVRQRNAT
# Experimental: as §1
# MCT4 = target: T2, MCT4 (Homo sapiens, UniProt O15427); test: MCT lactate inhibition assay, MCT4 in MDA-MB-231; settings: MDA-MB-231 cells
# T2 construct: Cell line MDA-MB-231 (MCT4 expressing human triple negative breast cancer cell line); endogenous in cells; host or cells: MDA-MB-231 human triple negative breast cancer cells
# T2 sequence (O15427 2-465 limits assumed): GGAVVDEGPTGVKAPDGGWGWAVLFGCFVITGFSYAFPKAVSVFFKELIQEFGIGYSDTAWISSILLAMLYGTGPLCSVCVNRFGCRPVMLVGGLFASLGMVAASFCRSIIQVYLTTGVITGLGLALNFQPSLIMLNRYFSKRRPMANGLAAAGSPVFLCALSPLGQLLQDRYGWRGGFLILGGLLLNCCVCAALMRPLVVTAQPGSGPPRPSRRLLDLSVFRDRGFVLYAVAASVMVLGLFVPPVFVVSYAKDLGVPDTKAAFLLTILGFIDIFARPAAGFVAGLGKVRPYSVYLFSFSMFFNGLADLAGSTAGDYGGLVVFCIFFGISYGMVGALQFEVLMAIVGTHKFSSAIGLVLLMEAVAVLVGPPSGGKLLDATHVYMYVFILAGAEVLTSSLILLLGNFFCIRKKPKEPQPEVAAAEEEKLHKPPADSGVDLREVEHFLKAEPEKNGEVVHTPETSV
# T2 sequence (P35613 140-385 partner limits assumed): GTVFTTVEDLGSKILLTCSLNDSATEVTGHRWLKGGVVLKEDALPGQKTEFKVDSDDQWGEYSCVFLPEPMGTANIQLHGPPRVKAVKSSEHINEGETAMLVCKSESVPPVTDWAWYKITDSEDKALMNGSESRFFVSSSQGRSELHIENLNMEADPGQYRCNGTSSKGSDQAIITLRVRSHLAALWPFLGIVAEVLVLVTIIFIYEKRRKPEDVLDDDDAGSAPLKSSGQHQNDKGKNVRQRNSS
# Experimental: as §1
# [2] = system: MCF-7 (MCT1 expressing estrogen receptor positive human breast cancer cell line); test: MTT in vitro cytotoxicity assay, MCF-7; settings: MCF7, MCF-7 cells
# Experimental: as §1
# [3] = system: MDA-MB-231 (MCT4 expressing human triple negative breast cancer cell line); test: MTT in vitro cytotoxicity assay, MDA-MB-231; settings: MDA-MB-231 cells
# Experimental: as §1
Structure (SMILES),IC50 [1],IC50 (MCT1),IC50 (MCT4),IC50 [2],IC50 [3]
CN(C)c1ccc(-n2cc(/C=C(\C#N)C(=O)O)c3ccccc32)cc1 [Compound 1-d],65.4 ± 4.26 µM,0.07 ± 0.02 µM,0.02 ± 0.01 µM,> 250 µM,> 250 µM
N#C/C(=C\c1cn(-c2ccc(NC(=O)Nc3ccc(Cl)c(C(F)(F)F)c3)cc2)c2ccccc12)C(=O)O [Compound 2],76.5 ± 4.86 µM,0.47 ± 0.05 µM,0.57 ± 0.05 µM,41.6 ± 20.8 µM,88.1 ± 17.2 µM
N#C/C(=C\c1cn(-c2ccc(NC(=O)c3ccc(NC(=O)Nc4ccc(Cl)c(C(F)(F)F)c4)cc3)cc2)c2ccccc12)C(=O)O [Compound 3],> 250 µM,0.11 µM,0.14 ± 0.04 µM,> 250 µM,> 250 µM
